Data: ChEMBL document CHEMBL3120082, “Synthesis and in vitro anti-proliferative effects of 3-(hetero)aryl substituted 3-[(prop-2-ynyloxy)(thiophen-2-yl)methyl]pyridine derivatives on various cancer cell lines” (Bioorg Med Chem Lett, 2014)
Calls of active or inactive are those of the source. No cut-off for these calls is given here.

Experiments:
MCF7 [1] = assay: Cytotoxicity against estrogen receptor-positive human MCF7 cells after 24 hrs by MTT assay; type: functional, cell-based; settings: MCF7, 24 h
MDA-MB-231 [2] = assay: Cytotoxicity against estrogen receptor-negative human MDA-MB-231 cells after 24 hrs by MTT assay; type: functional, cell-based; settings: MDA-MB-231, 24 h
[3] = Cytotoxicity against human HEK293 cells assessed as cell viability at 10 uM after 24 hrs by MTT assay; type: cell-based; settings: read-out: GI
HepG2 = assay: Cytotoxicity against human HepG2 cells assessed as cell viability at 10 uM after 24 hrs by MTT assay; type: functional; settings: for inhibition of growth at 10 µM: HepG2, 24 h, read-out: GI
[4] = (§1) Cytotoxicity against human IMR32 cells assessed as cell viability at 10 uM after 24 hrs by MTT assay; type: functional; settings: IMR-32, 24 h, read-out: GI
MCF7 [5] = assay: Cytotoxicity against estrogen receptor-positive human MCF7 cells assessed as cell viability at 10 uM after 24 hrs by MTT assay; type: functional; settings: for inhibition of growth at 10 µM: MCF7, 24 h, read-out: GI
MDA-MB-231 [6] = assay: Cytotoxicity against estrogen receptor-negative human MDA-MB-231 cells assessed as cell viability at 10 uM after 24 hrs by MTT assay; type: functional; settings: for inhibition of growth at 10 µM: MDA-MB-231, 24 h, read-out: GI
COLO 205 = assay: Cytotoxicity against human COLO205 cells assessed as cell viability at 10 uM after 24 hrs by MTT assay; type: functional; settings: for inhibition of growth at 10 µM: COLO 205, 24 h, read-out: GI
K562 = assay: Cytotoxicity against human K562 cells assessed as cell viability at 10 uM after 24 hrs by MTT assay; type: functional; settings: for inhibition of growth at 10 µM: K562, 24 h, read-out: GI
IMR-32 = assay: as §1; type: functional

Compound | IC50 (MCF7 [1]) | IC50 (MDA-MB-231 [2]; read-out: IC50) | inhibition at 24 h, 10 µM [3] | inhibition of growth at 10 µM (HepG2) | inhibition of growth at 10 µM [4] | inhibition of growth at 10 µM (MCF7 [5]) | inhibition of growth at 10 µM (MDA-MB-231 [6]) | inhibition of growth at 10 µM (COLO 205) | inhibition of growth at 10 µM (K562) | IC50 (MDA-MB-231 [2]) | growth inhibition (GI) (HepG2) | growth inhibition (GI) (IMR-32) | growth inhibition (GI) (MCF7 [5]) | growth inhibition (GI) (MDA-MB-231 [6]) | growth inhibition (GI) (COLO 205) | growth inhibition (GI) (K562)
O=C1Nc2ccc(C#CCOC(c3cccs3)c3cccnc3Cl)cc2C1=O (stereo not given) | 1.05 µM | 0.99 µM | 0.8% | 44.8% | 58.4% | 71.9% | 72.3% | 49.3% | 61.1% | – | – | – | – | – | – | –
O=C(O)c1ccccc1C#CCOC(c1cccs1)c1cccnc1Cl (stereo not given) | – | – | 2.7% | 33.1% | 38.1% | 35.9% | 47.9% | 34.7% | 40.2% | – | – | – | – | – | – | –
CCOC(=O)c1c[nH]nc1C#CCOC(c1cccs1)c1cccnc1Cl (stereo not given) | – | – | 0.4% | 34.3% | 30.9% | 33.8% | 35.3% | 45.8% | 54.8% | – | – | – | – | – | – | –
Oc1ccccc1C#CCOC(c1cccs1)c1cccnc1Cl (stereo not given) | 1.51 µM | 1.1 µM | 6% | 13.6% | 34.4% | 67.7% | 70.8% | 28.5% | 40.6% | – | – | – | – | – | – | –
O=[N+]([O-])c1ccccc1C#CCOC(c1cccs1)c1cccnc1Cl (stereo not given) | – | – | 0.1% | 46.2% | 53.2% | 34.8% | 48% | 16.5% | 18.9% | – | – | – | – | – | – | –
COc1cccc2c1C(=O)c1c(O)c3c(c(O)c1C2=O)C[C@@](O)(C(=O)CO)C[C@@H]3O[C@H]1C[C@H](N)[C@H](O)[C@H](C)O1 [DOXORUBICIN] | 0.44 µM | – | – | – | – | – | – | – | – | 0.65 µM | – | – | – | – | – | –
OC(c1cccs1)c1cccnc1Cl (stereo not given) | – | – | – | – | – | – | – | – | – | – | inactive | inactive | inactive | inactive | inactive | inactive
CCOC(=O)c1sc2c(c1C#CCOC(c1cccs1)c1cccnc1Cl)CCC2 (stereo not given) | – | – | -1.6% | 21.9% | 25.2% | 25% | 37.9% | 46% | 65.1% | – | – | – | – | – | – | –
O=C(O)c1ccc(C#CCOC(c2cccs2)c2cccnc2Cl)cc1 (stereo not given) | – | – | 4.8% | 38.2% | 39.6% | 35.9% | 38.9% | 44% | 57.7% | – | – | – | – | – | – | –
COc1ccc(C#CCOC(c2cccs2)c2cccnc2Cl)cc1 (stereo not given) | 1.72 µM | 1.16 µM | -1.1% | 13.9% | 20.7% | 64.7% | 70.1% | 31.6% | 33.8% | – | – | – | – | – | – | –
CCOC(=O)COC(c1cccs1)c1cccnc1Cl (stereo not given) | – | – | – | – | – | – | – | – | – | – | inactive | inactive | inactive | inactive | inactive | inactive
Clc1ncccc1C(OCC#Cc1ccc(I)cc1)c1cccs1 (stereo not given) | – | – | 0% | 54.2% | 60% | 45.6% | 52.2% | 39% | 48% | – | – | – | – | – | – | –
CCOC(=O)c1c(C#CCOC(c2cccs2)c2cccnc2Cl)sc2c1CCCC2 (stereo not given) | – | – | -0.9% | 29.5% | 22.5% | 31.8% | 46.4% | 32.1% | 53% | – | – | – | – | – | – | –
O=C(O)COC(c1cccs1)c1cccnc1Cl (stereo not given) | – | – | – | – | – | – | – | – | – | – | inactive | inactive | inactive | inactive | inactive | inactive
Nc1ccccc1C#CCOC(c1cccs1)c1cccnc1Cl (stereo not given) | 1.29 µM | 0.95 µM | 3.2% | 36.2% | 47.6% | 69.3% | 73.3% | 37.8% | 43.8% | – | – | – | – | – | – | –
